Test results taken from the supplement of paper PMC4862054.

Legend:
Settings in all cases: incubation time: 72 h
BT-474 = test: drug sensitivity score (DSS), CellTiter-Blue viability (DSS (AUC-based score)); higher = stronger viability inhibition; extreme values may be limits of the assay
Protocol: (§1)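 DSRT with the CellTiter-Blue (resazurin reduction) viability readout, fluorescence 560/590 nm, 72 h incubation. Plates were normalised to DMSO and benzethonium chloride controls. DSS is computed from the area under the fitted dose-response curve (5 or 9 concentrations).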

BT-549 = test: as above
Protocol: as §1

MDA-MB-453 [1] = test: as above
Protocol: as §1

HCC1937 [2] = test: as above
Protocol: as §1

Hs578T = test: as above
Protocol: as §1

CAL-85-1 = test: as above
Protocol: as §1

DU-4475 = test: as above
Protocol: as §1

HDQ-P1 [3] = test: as above
Protocol: as §1

MDA-MB-468 = test: as above
Protocol: as §1

MDA-MB-231 = test: as above
Protocol: as §1

CAL-51 [4] = test: as above
Protocol: as §1

SK-BR-3 = test: as above
Protocol: as §1

CAL-120 = test: as above
Protocol: as §1

MDA-MB-436 [5] = test: as above
Protocol: as §1

HCC1599 [6] = test: as above
Protocol: as §1

CAL-148 = test: as above
Protocol: as §1

HCC1143 = test: as above
Protocol: as §1

MFM-223 [7] = test: as above
Protocol: as §1

MDA-MB-453 [8] = test: normalised viability (% of control), CellTiter-Blue; higher = more viable cells (about 100 = DMSO control)
Procedure, shortened: (§2)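 Normalised viability is given for a single listed concentration of the series. In 384-well plates, breast cancer cell lines were incubated 72 h with compound, then read with CellTiter-Blue (2 h, 37 °C) at 560/590 nm. Per-plate scaling set vehicle to 100 and a positive kill control to 0, with Z'-factor quality control.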

HCC1937 [9] = test: as above
Procedure, shortened: as §2

HDQ-P1 [10] = test: as above
Procedure, shortened: as §2

CAL-51 [11] = test: as above
Procedure, shortened: as §2

MDA-MB-436 [12] = test: as above
Procedure, shortened: as §2

HCC1599 [13] = test: as above
Procedure, shortened: as §2

MFM-223 [14] = test: as above
Procedure, shortened: as §2

COc1ccc(S(=O)(=O)Nc2cccnc2Nc2ccc(O)cc2)cc1 [ABT-751]
Settings | drug sensitivity score
BT-474 | 7
BT-549 | 6.81
CAL-51 [4] | 11.8
CAL-85-1 | 13.7
CAL-120 | 14.5
CAL-148 | 10.7
DU-4475 | 10.1
HCC1143 | 9.7
HCC1599 [6] | 5.55
HCC1937 [2] | 14.9
HDQ-P1 [3] | 12
Hs578T | 17.3
MDA-MB-231 | 14.3
MDA-MB-436 [5] | 10.4
MDA-MB-453 [1] | 17.9
MDA-MB-468 | 8.8
MFM-223 [7] | 8.15
SK-BR-3 | 18.5

normalised viability [%]
Settings | CAL-51 [11] | HCC1599 [13] | HCC1937 [9] | HDQ-P1 [10] | MDA-MB-436 [12] | MDA-MB-453 [8] | MFM-223 [14]
3 nM | 114 | – | – | 91.2 | – | 105 | –
10 nM | – | 112 | 86.8 | – | 86 | – | 94.7
30 nM | 107 | – | – | 102 | – | 81.8 | –
100 nM | 107 | – | – | 107 | – | 67.9 | –
1000 nM | – | 85.6 | 24.7 | – | 48.3 | – | 62.6
10000 nM | – | 40.4 | 14 | – | 21.4 | – | 25.4

Cc1cc(Nc2nc(N[C@@H](C)c3ncc(F)cn3)ncc2Cl)[nH]n1 [AZD1480]
Settings | drug sensitivity score
BT-474 | 0
BT-549 | 0
CAL-51 [4] | 0
CAL-85-1 | 0
CAL-120 | 0
CAL-148 | 0
DU-4475 | 0.841
HCC1143 | 0
HCC1599 [6] | 1.53
HCC1937 [2] | 0
HDQ-P1 [3] | 0
Hs578T | 0
MDA-MB-231 | 0
MDA-MB-436 [5] | 0
MDA-MB-453 [1] | 0.912
MDA-MB-468 | 0
MFM-223 [7] | 7.5
SK-BR-3 | 0

normalised viability [%]
Settings | CAL-51 [11] | HCC1599 [13] | HCC1937 [9] | HDQ-P1 [10] | MDA-MB-436 [12] | MDA-MB-453 [8] | MFM-223 [14]
0.3 nM | 115 | – | – | 106 | – | 120 | –
1 nM | – | 96 | 112 | – | 109 | – | 92.1
3 nM | 114 | – | – | 108 | – | 95.6 | –
10 nM | 110 | – | – | 107 | – | 110 | –
100 nM | – | 96.6 | 83.9 | – | 96.4 | – | 60.8
1000 nM | – | 74.6 | 83.4 | – | 125 | – | 46.2

CNC(=O)c1ccccc1Sc1ccc2c(/C=C/c3ccccn3)n[nH]c2c1 [Axitinib]
Settings | drug sensitivity score
BT-474 | 0
BT-549 | 4.37
CAL-51 [4] | 6.1
CAL-85-1 | 4.41
CAL-120 | 0
CAL-148 | 5.17
DU-4475 | 6.24
HCC1143 | 2.06
HCC1599 [6] | 0
HCC1937 [2] | 5.79
HDQ-P1 [3] | 4.73
Hs578T | 0
MDA-MB-231 | 2.62
MDA-MB-436 [5] | 13.7
MDA-MB-453 [1] | 7.1
MDA-MB-468 | 1.45
MFM-223 [7] | 11.4
SK-BR-3 | 0

normalised viability [%]
Settings | CAL-51 [11] | HCC1599 [13] | HCC1937 [9] | HDQ-P1 [10] | MDA-MB-436 [12] | MDA-MB-453 [8] | MFM-223 [14]
3 nM | 107 | – | – | 101 | – | 103 | –
10 nM | – | 105 | 41.1 | – | 103 | – | 86.7
30 nM | 102 | – | – | 106 | – | 108 | –
100 nM | 98.2 | – | – | 92.1 | – | 97.2 | –
1000 nM | – | 84.8 | 81.8 | – | 21.7 | – | 47.6
10000 nM | – | 62 | 42.6 | – | 46 | – | 47.7

CC(O)(CS(=O)(=O)c1ccc(F)cc1)C(=O)Nc1ccc(C#N)c(C(F)(F)F)c1 (configuration not stated) [Bicalutamide]
Settings | drug sensitivity score
BT-474 | 0
BT-549 | 0
CAL-51 [4] | 0
CAL-85-1 | 0
CAL-120 | 0
CAL-148 | 0
DU-4475 | 0
HCC1143 | 0
HCC1599 [6] | 0
HCC1937 [2] | 0
HDQ-P1 [3] | 0
Hs578T | 0
MDA-MB-231 | 0
MDA-MB-436 [5] | 0
MDA-MB-453 [1] | 0
MDA-MB-468 | 4.86e-06
MFM-223 [7] | 0
SK-BR-3 | 0

normalised viability [%]
Settings | CAL-51 [11] | HCC1599 [13] | HCC1937 [9] | HDQ-P1 [10] | MDA-MB-436 [12] | MDA-MB-453 [8] | MFM-223 [14]
3 nM | 116 | – | – | 86.9 | – | 114 | –
10 nM | – | 98.3 | 101 | – | 90 | – | 89.2
30 nM | 109 | – | – | 110 | – | 89.2 | –
100 nM | 99.1 | – | – | 118 | – | 95.9 | –
1000 nM | – | 93.6 | 107 | – | 96.2 | – | 91.8
10000 nM | – | 109 | 78.5 | – | 96.7 | – | 94

CCNC(=O)CCC/C=C\C[C@@H]1[C@@H](/C=C/[C@@H](O)CCc2ccccc2)[C@H](O)C[C@@H]1O [Bimatoprost]
Settings | drug sensitivity score
BT-474 | 0
BT-549 | 0
CAL-51 [4] | 0
CAL-85-1 | 0
CAL-120 | 0
CAL-148 | 0
DU-4475 | 0
HCC1143 | 0
HCC1599 [6] | 0
HCC1937 [2] | 0
HDQ-P1 [3] | 0
Hs578T | 0
MDA-MB-231 | 0
MDA-MB-436 [5] | 0
MDA-MB-453 [1] | 0
MDA-MB-468 | 0
MFM-223 [7] | 0
SK-BR-3 | 0

normalised viability [%]
Settings | CAL-51 [11] | HCC1599 [13] | HCC1937 [9] | HDQ-P1 [10] | MDA-MB-436 [12] | MDA-MB-453 [8] | MFM-223 [14]
1.65 nM | 124 | – | – | 111 | – | 116 | –
5.5 nM | – | 111 | 106 | – | 111 | – | 112
16.5 nM | 114 | – | – | 103 | – | 91.7 | –
55 nM | 112 | – | – | 102 | – | 92.5 | –
550 nM | – | 111 | 99.9 | – | 111 | – | 104
5500 nM | – | 112 | 89.6 | – | 103 | – | 96.7

COc1cc(Nc2c(C#N)cnc3cc(OCCCN4CCN(C)CC4)c(OC)cc23)c(Cl)cc1Cl [Bosutinib]
Settings | drug sensitivity score
BT-474 | 5.59
BT-549 | 5.28
CAL-51 [4] | 3.35
CAL-85-1 | 5.55
CAL-120 | 8.36
CAL-148 | 7.34
DU-4475 | 2.82
HCC1143 | 5.05
HCC1599 [6] | 3.68
HCC1937 [2] | 6.37
HDQ-P1 [3] | 6.6
Hs578T | 3.1
MDA-MB-231 | 6.93
MDA-MB-436 [5] | 4.98
MDA-MB-453 [1] | 6.37
MDA-MB-468 | 5.03
MFM-223 [7] | 4.68
SK-BR-3 | 7.78

normalised viability [%]
Settings | CAL-51 [11] | HCC1599 [13] | HCC1937 [9] | HDQ-P1 [10] | MDA-MB-436 [12] | MDA-MB-453 [8] | MFM-223 [14]
3 nM | 115 | – | – | 109 | – | 120 | –
10 nM | – | 131 | 106 | – | 111 | – | 100
30 nM | 114 | – | – | 121 | – | 107 | –
100 nM | 120 | – | – | 104 | – | 105 | –
1000 nM | – | 93.3 | 84.9 | – | 95 | – | 80.8
10000 nM | – | 51.7 | 8.95 | – | 16.8 | – | 36.8

CCN(CC)CCCC(C)Nc1ccnc2cc(Cl)ccc12 (configuration not stated) [Chloroquine]
Settings | drug sensitivity score
BT-474 | 0
BT-549 | 0
CAL-51 [4] | 0
CAL-85-1 | 0
CAL-120 | 0
CAL-148 | 0
DU-4475 | 0
HCC1143 | 0
HCC1599 [6] | 0
HCC1937 [2] | 0
HDQ-P1 [3] | 0
Hs578T | 0
MDA-MB-231 | 0
MDA-MB-436 [5] | 0
MDA-MB-453 [1] | 0
MDA-MB-468 | 0
MFM-223 [7] | 0
SK-BR-3 | 0

normalised viability [%]
Settings | CAL-51 [11] | HCC1599 [13] | HCC1937 [9] | HDQ-P1 [10] | MDA-MB-436 [12] | MDA-MB-453 [8] | MFM-223 [14]
0.297 nM | 94 | – | – | 107 | – | 108 | –
0.99 nM | – | 100 | 100 | – | 133 | – | 101
2.97 nM | 92.9 | – | – | 113 | – | 111 | –
9.9 nM | 91.7 | – | – | 116 | – | 105 | –
99 nM | – | 85.6 | 111 | – | 104 | – | 106
990 nM | – | 119 | 100 | – | 141 | – | 94.2

Cn1cc(C2=C(c3cn(C4CCN(Cc5ccccn5)CC4)c4ccccc34)C(=O)NC2=O)c2ccccc21 [Enzastaurin]
Settings | drug sensitivity score
BT-474 | 2.68
BT-549 | 6.55
CAL-51 [4] | 0
CAL-85-1 | 0
CAL-120 | 0
CAL-148 | 5.06
DU-4475 | 0
HCC1143 | 5.14
HCC1599 [6] | 0
HCC1937 [2] | 5.39
HDQ-P1 [3] | 1.6
Hs578T | 9.93
MDA-MB-231 | 0
MDA-MB-436 [5] | 9.96
MDA-MB-453 [1] | 7.69
MDA-MB-468 | 0
MFM-223 [7] | 6.5
SK-BR-3 | 10.1

normalised viability [%]
Settings | CAL-51 [11] | HCC1599 [13] | HCC1937 [9] | HDQ-P1 [10] | MDA-MB-436 [12] | MDA-MB-453 [8] | MFM-223 [14]
3 nM | 117 | – | – | 113 | – | 107 | –
10 nM | – | 101 | 91.1 | – | 127 | – | 90
30 nM | 111 | – | – | 107 | – | 93.7 | –
100 nM | 107 | – | – | 89.3 | – | 87.8 | –
1000 nM | – | 93.2 | 75.6 | – | 56.1 | – | 65.1
10000 nM | – | 82.4 | 48.9 | – | 57.8 | – | 55.9
